From US6046231A, “Use of 4'-bromoflavone in a cancer chemopreventative composition and method” (The Board of Trustees of the University of Illinois, priority 1999, dated 2000) come the findings set out here.

Where two headings read alike, the source gives them in different places.

The target of one test is T1, cytochrome P4501A1 (Rattus norvegicus, UniProt P00185).
T1 sequence (P00185 1-524): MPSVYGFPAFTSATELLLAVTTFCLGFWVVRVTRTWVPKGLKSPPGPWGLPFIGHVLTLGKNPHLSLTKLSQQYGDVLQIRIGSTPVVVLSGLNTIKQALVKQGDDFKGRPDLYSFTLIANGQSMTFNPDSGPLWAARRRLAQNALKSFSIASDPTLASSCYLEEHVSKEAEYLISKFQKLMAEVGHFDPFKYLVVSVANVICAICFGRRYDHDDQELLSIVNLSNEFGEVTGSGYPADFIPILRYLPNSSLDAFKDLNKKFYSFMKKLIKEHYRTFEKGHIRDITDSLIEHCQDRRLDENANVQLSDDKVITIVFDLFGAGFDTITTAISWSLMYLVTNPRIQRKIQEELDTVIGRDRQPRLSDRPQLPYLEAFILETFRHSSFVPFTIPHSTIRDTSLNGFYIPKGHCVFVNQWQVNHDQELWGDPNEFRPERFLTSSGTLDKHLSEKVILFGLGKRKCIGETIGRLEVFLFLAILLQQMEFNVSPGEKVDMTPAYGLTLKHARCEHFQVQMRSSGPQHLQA
Briefly: biochemical. As to the method: Inhibition of DMBA-induced Cytochrome P4501A1 Activity. Female Sprague Dawley rats (43 days of age) were treated with DMBA (i.g.), and liver microsomes were isolated through differential centrifugation. Cytochrome P4501A1 activity was monitored by assessing EROD activity. Briefly, 200 μl of microsomal protein (2 mg/ml) were added to a reaction mixture containing 640 μl of 0.05 M Tris-HCl buffer (pH 7.5), 100 μl of BSA (10 mg/ml in Tris buffer), 20 μl of 0.25 M MgCl2, 40 μl of cofactor solution (0.3282 g of NADP and 1.417 g of glucose 6-phosphate in 40 ml of 1.15% KCl), 2.5 units of glucose 6-phosphate dehydrogenase, 10 μl of substrate (1 mg of ethoxyresorufin in 10 ml of methanol) and 10 μl of various concentrations of 4'-BF in DMSO (α-naphthoflavone as positive control; DMSO as negative control). After incubating at 37° C. for 4 min, the reactions were terminated by the addition of 2 ml of methanol. Samples were then centrifuged for 20 min at 2,000×g. and 200 μl of the supernatant fractions were transferred to 96-well plates and read on a spectrofluorimeter (500 nm excitation and 585 nm emission). Assays were conducted in triplicate and the percent of inhibition was calculated as: [1-(sample A-blank)/(DMSO A-blank)]×100.

Test [1] has as its system quinone reductase (QR), Hepa 1c1c7 cells. Kind of test: Quinone reductase (QR) induction in Hepa 1c1c7 cells. The conditions noted are these: for CI, chemoprevention index (IC50/CD): 2880 min. It counts as cell-based, murine. The text has this:
This test was used because the specific activity of QR rises concomitantly with other phase II enzymes in many animal tissues in response to various chemopreventive agents. The study included natural and synthetic B-ring substituted flavones, as well as biosynthetic precursor chalcones and flavanones.
Determination of Quinone Reductase Activity in Cell Cultures. To determine the potency of inducers, Hepa 1c1c7 murine hepatoma cells as described in the Gerhauser publication were placed in 96-well plates at a density of 1×10^4 cells/ml in 200 μl of medium. After a preincubation period of 24 hr, the media were decanted and 190 μl fresh media were added to each well. Ten (10) μl test agents dissolved in 10% DMSO (final concentration of DMSO is 0.5%) with a serial 2-fold dilutions were introduced to each well, and the plates were incubated for an additional 48 hours. Specific QR activity was determined by measuring the NADPH-dependent menadiol-mediated reduction of 3-(4, 5-dimethylthiazo-2-yl)-2,5-diphenyltetrazolium bromide to blue formazan formed per mg protein per minute. Protein was determined in an identical set of test plates by staining with crystal violet. Hepa 1c1c7 cells retain many characteristics of normal issues, particularly the capacity for carcinogen activation and metabolism. They are amenable to precise control of environmental, nutritional, and hormonal factors. […] Induction of QR activity was calculated by comparing the QR specific activity of agent-treated cells with that of solvent-treated cells, and a plot of ratio was generated. CD represents the concentration required to double QR induction. Chemopreventive index (CI) is an indexing value generated by comparing CD with IC50 (concentration for 50% inhibition of cell viability) values.
Induction of Quinone Reductase in Hepa 1c1c7 Cells. […] Modification of the B-ring of chalcones, flavanones, and flavones was hypothesized to induce torsion of the B-ring, and, therefor, simulate out-of-plane distortions characteristic of polycyclic aromatic hydrocarbons, such as DMBA. Induction of QR activity was calculated by comparing the QR specific activity of agent-treated cells with the QR specific activity of solvent-treated cells, and a plot of ratios was generated. CD represents the concentration required for a double fold of induction. CI (Chemopreventive Index) is a value obtained by comparing CD with IC50 (concentration for 50% inhibition of cell viability in […]).

For a further test, the system named is Hepa 1c1c7 cells. Kind of test: Hepa 1c1c7 cell viability (cytotoxicity). The conditions noted are these: Mus musculus. It counts as cell-based, murine.
The mark [2] stands for this setting: Mus musculus, Hepa-1c1c7, 48 h, Hepa 1c1c7 cells, 48 h, read-out: CD, concentration to double the specific activity of QR.
Setting [3] is: Hepa-1c1c7, Hepa 1c1c7 cells, read-out: IC50, concentration for 50% inhibition of cell viability.

At cytochrome P4501A1, `O=c1cc(-c2ccccc2)oc2c1ccc1ccccc12` [a-naphthoflavone, α-naphthoflavone, reference compound] registered an IC50 of 0.09 µM.

With `O=c1cc(-c2ccc(C(F)(F)F)cc2)oc2ccccc12` [4'-Trifluoromethylflavone], in test [1] (Hepa 1c1c7 cells), the Cq amounted to 0.1 µM. Moreover, the “CI, chemoprevention index (IC50/CD)” value in test [1] is listed as 3000. Also, in test [1] (setting [2]), the EC (2-fold) came out at 0.03 µM. In addition, the IC50 in the test with Hepa 1c1c7 cells (setting [3]) is 90 µM.

In test [1] (Hepa 1c1c7 cells), `O=c1cc(-c2cccc(F)c2)oc2ccccc12` [3'-Fluoroflavone] displayed a Cq of 1.24 µM. The “CI, chemoprevention index (IC50/CD)” value in test [1] worked out at 63. In addition, the EC (2-fold) in test [1] (setting [2]) stood at 0.67 µM. The IC50 in the test on Hepa 1c1c7 cells (setting [3]) amounted to 42 µM.

In test [1] (Hepa 1c1c7 cells), `O=c1cc(-c2ccccc2)oc2ccccc12` [Flavone] had a Cq of 8.3 µM. In addition, the “CI, chemoprevention index (IC50/CD)” value in test [1] was found to be 42. For the same molecule, the EC (2-fold) in test [1] (setting [2]) worked out at 2.5 µM. Besides, the IC50 with Hepa 1c1c7 cells (setting [3]) worked out at 106 µM.

In the case of `O=C(/C=C/c1ccc(Br)cc1)c1ccccc1O` [4-Bromo-2'-hydroxychalcone], in test [1] (Hepa 1c1c7 cells), the Cq worked out at 66 µM. Besides, the “CI, chemoprevention index (IC50/CD)” value in test [1] is reported as 4. Moreover, in test [1] (Mus musculus, Hepa-1c1c7, 48 h, read-out: CD, concentration to double the specific activity of QR, Hepa 1c1c7 cells, 48 h), the EC (2-fold) was determined as 18 µM. Further, the IC50 with Hepa 1c1c7 cells (Hepa-1c1c7, read-out: IC50, concentration for 50% inhibition of cell viability) was found to be 66 µM.

In turn, `COc1cccc(OC)c1/C=C/C(=O)c1ccccc1O` [2'-Hydroxy-2,6-dimethoxychalcone] yielded a Cq in test [1] (Hepa 1c1c7 cells) of 3.7 µM. The EC (2-fold) in test [1] (Hepa 1c1c7 cells, 48 h, read-out: CD, concentration to double the specific activity of QR) worked out at 0.54 µM; in test [1] (setting [2]) it was 0.53 µM. For the same molecule, in test [1], the “CI, chemoprevention index (IC50/CD)” value is on record as 26. In the test with Hepa 1c1c7 cells (setting [3]), the IC50 stood at 14 µM.

Regarding `O=c1cc(-c2ccc(F)cc2)oc2ccccc12` [4'-Fluoroflavone], in test [1] (Hepa 1c1c7 cells), the Cq is 32 µM. For the same molecule, the “CI, chemoprevention index (IC50/CD)” value in test [1] is on record as greater than 24. In addition, the EC (2-fold) in test [1] (setting [2]) came out at 3.4 µM. Besides, the IC50 with Hepa 1c1c7 cells (setting [3]) was greater than 83 µM.

For the molecule `O=C(/C=C/c1ccccc1[N+](=O)[O-])c1ccccc1O` [2'-Hydroxy-2-nitrochalcone], the Cq in test [1] (Hepa 1c1c7 cells) was 3.6 µM. Further, in test [1], the “CI, chemoprevention index (IC50/CD)” value was 37. The EC (2-fold) in test [1] (setting [2]) worked out at 0.3 µM. The IC50 in the test on Hepa 1c1c7 cells (setting [3]) was 11 µM.
